Experiments:
[1] = system: patients with prior myocardial infarction (CARE study); test: CARE: risk of cardiovascular disease events associated with pravastatin by CD6 or FCAR genotype (Tables 11, 12); format: in vivo, human; conditions: for RR (relative risk) of RMI associated with Pravastatin: recurrent MI during 5 years follow up; for OR of RMI associated with Pravastatin, Adjusted for Age, Smoking status, Gender / OR of RMI associated with Pravastatin, Adjusted for Age, Smoking status, Gender, hypertension, BMI, diabetes, baseline LDLD and HDL / OR of RMI associated with Pravastatin, Unadjusted: placebo group as reference
From the text: (§1) In order to identify genetic markers associated with acute coronary events (e.g. MI, stroke, unstable angina, congestive heart failure, etc.) or response to statin treatment for the prevention of coronary events, samples from the Cholesterol and Recurrent Events (CARE) study (a randomized multicentral double-blinded trial on secondary prevention of acute coronary events with pravastatin) (Sacks et al., 1991, Am. J. Cardiol. 68: 1436-1446) were genotyped. A well-documented myocardial infarction (MI) was one of the enrollment criteria for entry into the CARE study. Patients were enrolled in the CARE trial from 80 participating study centers. […] Patients were randomized to receive either 40 mg of pravastatin once daily or a matching placebo. The primary endpoint of the trial was death from coronary heart disease and the median duration of follow-up was 5.0 years (range, 4.0 to 6.2 years). […] Secondary endpoints of other related cardiovascular or metabolic disease events, and changes in clinical variables were also recorded in pravastatin-treated and placebo groups. All individuals included in the study had signed a written informed consent form and the study protocol was approved by the respective Institutional Review Boards (IRBs).
In both studies the individuals homozygous for the minor allele were statistically different from heterozygous and major allele homozygous individuals in the pravastatin treated group vs. the placebo treated group. This SNP was associated with a reduced risk of an adverse coronary event in the CARE and WOSCOPS studies with RR or OR of 0.13 and 0.23 respectively in the two studies. Therefore, SNPs identified as useful for predicting RMI may also be useful for predicting increased risk for developing primary MI.
Therefore, an allele found to be associated with risk for MI, RMI, stroke, or other adverse cardiovascular event, may also be useful for predicting responsiveness to statin treatment. SNPs associated with treatment response to pravastatin may also be predictive of responsiveness of an individual to other statins as a class.

[2] = system: patients with prior myocardial infarction (CARE study); test: CARE trial: pravastatin vs placebo, recurrent MI (RMI), overall and by ABCA1/NPC1/HSPG2 genotype pattern; format: in vivo, human
From the text: as §1
For genotyping SNPs in CARE patient samples, DNA was extracted from blood samples using conventional DNA extraction methods such as the QIA-amp kit from Qiagen. Genotypes were obtained on an ABI PRISM® 7900HT Sequence Detection PCR system (Applied Biosystems, Foster City, Calif.) by kinetic allele-specific PCR, similar to the method described by Germer et al. (Germer S., Holland M. J., Higuchi R. 2000, Genome Res. 10: 258-266).
The genotype data generated from the DNA of patients who participated in the CARE study was analyzed to determine the effect that pravastatin treatment had on the occurrence of RMI in patients with each of the potential genotypes (low risk, protective or high risk, non-protective) for the ABCA1 gene, the NPC1 gene and the […] gene independently.
The effect of pravastatin treatment on the occurrence of RMI in patients with each of the potential genotypes (protective, low risk genotype or non-protective, high risk genotype) for each of the ABCA1 gene, NPC1 gene, and HSPG2 gene alone, and combinations with the other two genes thereof are presented in Table 17.
This is a 50% reduction in risk over a 5 year period for RMI. […] This is an 80% reduction in risk over a 5 year period for RMI.

[3] = system: animal models and myocyte cultures; conditions: compared to other hydrophobic statins; cited from earlier work
[4] = FCAR hCV7841642 genotype AA + AG
[5] = Pattern 0, pravastatin vs placebo
[6] = Pattern 2, pravastatin vs placebo
[7] = Pattern 3, pravastatin vs placebo

CC[C@H](C)C(=O)O[C@H]1C[C@H](O)C=C2C=C[C@H](C)[C@H](CC[C@@H](O)C[C@@H](O)CC(=O)O)[C@H]21 [pravastatin]
RR or OR of adverse coronary event, pravastatin vs placebo ([1]; CD6 hCV2553030, homozygous for the minor allele): 0.13 | RR (relative risk) of RMI associated with Pravastatin ([1]; CD6 hCV2553030 genotype Het (TC)): 0.76 | RR (relative risk) of RMI associated with Pravastatin ([1]; CD6 hCV2553030 genotype Major hom (CC)): 0.8 | RR (relative risk) of RMI associated with Pravastatin ([1]; CD6 hCV2553030 genotype Minor hom (TT)): 0.13 | RR (relative risk) of RMI associated with Pravastatin ([1]; CD6 hCV2553030 recessive (TT + CC)ref): 0.78 | RR (relative risk) of RMI associated with Pravastatin ([1]; CD6 hCV2553030 recessive (TT)): 0.13 | OR of RMI associated with Pravastatin, Adjusted for Age, Smoking status, Gender [1, 4]: 0.31 | OR of RMI associated with Pravastatin, Adjusted for Age, Smoking status, Gender, hypertension, BMI, diabetes, baseline LDLD and HDL [1, 4]: 0.31 | OR of RMI associated with Pravastatin, Unadjusted [1, 4]: 0.32 | OR of RMI associated with Pravastatin, Adjusted for Age, Smoking status, Gender ([1]; FCAR hCV7841642 genotype GG): 0.79 | OR of RMI associated with Pravastatin, Adjusted for Age, Smoking status, Gender, hypertension, BMI, diabetes, baseline LDLD and HDL ([1]; FCAR hCV7841642 genotype GG): 0.79 | OR of RMI associated with Pravastatin, Unadjusted ([1]; FCAR hCV7841642 genotype GG): 0.81 | No RMI (number of patients) ([2]; All, pravastatin arm): 1367 | RMI (number of patients) ([2]; All, pravastatin arm): 106 | Risk (of RMI) ([2]; All, pravastatin arm): 0.072 | RDStatin ([2]; All, pravastatin vs placebo): 0.023 | RRStatin ([2]; All, pravastatin vs placebo): 0.76 | 5 year risk of a RMI ([2]; CARE patients with pattern 0 genotypes receiving pravastatin): 7.9% | 5 year risk of a RMI ([2]; CARE patients with pattern 2 genotypes receiving pravastatin): 6.8% | 5 year risk of a RMI ([2]; CARE patients with pattern 3 genotype receiving pravastatin): 4.6% | reduction in risk for RMI in treatment vs. placebo groups ([2]; CARE, all patients): 25% | 5 year risk of having a recurrent MI (RMI) ([2]; CARE, all patients who received pravastatin 40 mg once daily): 7.2% | Cox Proportional Hazard Ratio (HR age-adjusted) for RMI ([2]; CARE, all patients, pravastatin vs placebo): 0.75 | Age-adjusted pravastatin effect on RMI, RR ([2]; High risk ABCA1 genotype): 0.9567 | Age-adjusted pravastatin effect on RMI, RR ([2]; High risk HSPG2 genotype): 0.8097 | Age-adjusted pravastatin effect on RMI, RR ([2]; High risk NPC1 genotype): 1.0824 | Age-adjusted pravastatin effect on RMI, RR ([2]; High risk, non-protective genotypes (ABCA1, NPC1, HSPG2)): 1.7175 | Age-adjusted pravastatin effect on RMI, RR ([2]; Low risk ABCA1, NPC1 and HSPG2 (pattern 3 genotype)): 0.2399 | Age-adjusted pravastatin effect on RMI, RR ([2]; Low risk ABCA1 and HSPG2 only): 1.0054 | Age-adjusted pravastatin effect on RMI, RR ([2]; Low risk ABCA1 and NPC1 only (pattern 2 genotype)): 0.5258 | Age-adjusted pravastatin effect on RMI, RR ([2]; Low risk ABCA1 genotype): 0.5883 | Age-adjusted pravastatin effect on RMI, RR ([2]; Low risk HSPG2 genotype): 0.3934 | Age-adjusted pravastatin effect on RMI, RR ([2]; Low risk NPC1 and HSPG2 only): 0.2964 | Age-adjusted pravastatin effect on RMI, RR ([2]; Low risk NPC1 genotype): 0.5938 | Age-adjusted pravastatin effect on RMI, RR ([2]; Low risk, protective ABCA1 only): 0.8765 | Age-adjusted pravastatin effect on RMI, RR ([2]; Low risk, protective HSPG2 only): 0.2487 | Age-adjusted pravastatin effect on RMI, RR ([2]; Low risk, protective NPC1 only): 0.8954 | No RMI (number of patients) ([2]; Pattern 0, pravastatin arm): 906 | RMI (number of patients) ([2]; Pattern 0, pravastatin arm): 78 | Risk (of RMI) ([2]; Pattern 0, pravastatin arm): 0.079 | RDStatin [2, 5]: 0.001 | RRStatin [2, 5]: 0.98 | No RMI (number of patients) ([2]; Pattern 2, pravastatin arm): 342 | RMI (number of patients) ([2]; Pattern 2, pravastatin arm): 25 | Risk (of RMI) ([2]; Pattern 2, pravastatin arm): 0.068 | RDStatin [2, 6]: 0.057 | RRStatin [2, 6]: 0.55 | No RMI (number of patients) ([2]; Pattern 3, pravastatin arm): 62 | RMI (number of patients) ([2]; Pattern 3, pravastatin arm): 3 | Risk (of RMI) ([2]; Pattern 3, pravastatin arm): 0.046 | RDStatin [2, 7]: 0.147 | RRStatin [2, 7]: 0.24 | HR for RMI, pravastatin vs no statin ([2]; pattern 2 genotypes): 0.53 | reduction in risk over a 5 year period for RMI ([2]; pattern 2 genotypes): 50% | HR for RMI, pravastatin vs no statin ([2]; pattern 3 genotype): 0.2 | reduction in risk over a 5 year period for RMI ([2]; pattern 3 genotype): 80% | myopathic potential [3]: low myopathic potential

Reference: patent publication US9932637B2, “Genetic polymorphisms associated with cardiovascular disorders and drug response, methods of detection and uses thereof” (CELERA CORPORATION, priority 2003, dated 2018)
